Experimental findings from PubChem BioAssay (NCI) are described below.

SMILES strings stand for the structures.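 Values below derive from 48-hour exposures of cells grown in 96-well plates, with endpoints linearly interpolated between the two concentrations bracketing the appropriate inhibition level. Abbreviation: GI50, concentration required for 50% inhibition of growth. TGI: total growth inhibition.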

Test systems include RXF 393 renal; MCF7 breast; HOP-62 NSCLC; HOP-92 NSCLC; MDA-MB-435; IGROV1 ovarian; LOX IMVI melanoma; HL-60(TB) leukemia.
Holding throughout (assay): NCI anticancer screen, dose series, 48 h

For `Nc1c(C(=O)Nc2ccccc2)sc2nc3c(cc12)CN(Cc1ccccc1)CC3`, the GI50 is 3.15 µM in the assay on RXF 393 renal; 12.1 µM in the assay with MCF7 breast; 4.11 µM with HOP-62 NSCLC; 2.48 µM in the assay with HOP-92 NSCLC; 3.43 µM with MDA-MB-435; 37.8 µM in the assay on IGROV1 ovarian. Moreover, the GI50 with LOX IMVI melanoma is 10.5 µM. The TGI in the assay with RXF 393 renal is 54.3 µM; with MCF7 breast, more than 100 µM; in the assay with HOP-62 NSCLC, 33.3 µM; in the assay on HOP-92 NSCLC, 20.4 µM; with MDA-MB-435 it was 71.6 µM; in the assay on IGROV1 ovarian it was more than 100 µM. The compound further showed a TGI in the assay with LOX IMVI melanoma of more than 100 µM.

Turning to `COc1cc(C2C3=C(COC3=O)Nc3cc4c(cc32)CCC4)cc2c1OCO2` (stereo not drawn), the GI50 with MCF7 breast was 0.0349 µM; in the assay with HOP-62 NSCLC, 0.0471 µM; with HOP-92 NSCLC, 12.7 µM; with MDA-MB-435 it was 0.0237 µM; with HL-60(TB) leukemia it was 0.033 µM; in the assay on IGROV1 ovarian it was 0.0617 µM. Also, the GI50 in the assay on LOX IMVI melanoma is 0.0496 µM. Moreover, the TGI with MCF7 breast stood at 13.3 µM; with HOP-62 NSCLC, 12 µM; with HOP-92 NSCLC, 40.5 µM; with MDA-MB-435, 0.0604 µM; in the assay on HL-60(TB) leukemia, 0.724 µM; with IGROV1 ovarian it was 17.1 µM. In the assay on LOX IMVI melanoma, this compound gave a TGI of 12.1 µM.

On to `COc1ccc(-c2nn(-c3cccc(Cl)c3)cc2-c2cc(-c3ccccc3)nc(N)n2)cc1`, for which the GI50 with RXF 393 renal was 2.64 µM; in the assay with HOP-62 NSCLC, 2.5 µM; in the assay on HOP-92 NSCLC it was 1.06 µM; in the assay on HL-60(TB) leukemia, 2.53 µM; in the assay on IGROV1 ovarian it was 4.2 µM. For the same compound, the TGI in the assay on RXF 393 renal amounted to 8.47 µM; with HOP-62 NSCLC it was 6.41 µM; in the assay with HOP-92 NSCLC, 4.77 µM; in the assay on HL-60(TB) leukemia, 6.21 µM; in the assay on IGROV1 ovarian, 16.5 µM.

Turning to `CSc1ccccc1C#Cc1ccccc1C#CCCCCO`, the GI50 in the assay on RXF 393 renal was 3.86 µM; in the assay with MCF7 breast, 19.1 µM; with HOP-62 NSCLC, 24.9 µM; in the assay with HOP-92 NSCLC it was 9.76 µM; with MDA-MB-435, 3.9 µM; in the assay on IGROV1 ovarian it was 14 µM. In the assay on LOX IMVI melanoma, the GI50 is 5.87 µM. The TGI in the assay with RXF 393 renal was 17.5 µM; in the assay on MCF7 breast, 39.2 µM; with HOP-62 NSCLC, more than 100 µM; in the assay on HOP-92 NSCLC it was 25.1 µM; in the assay on MDA-MB-435 it was 15.2 µM; with IGROV1 ovarian, 27.5 µM. The same compound registered a TGI in the assay on LOX IMVI melanoma of 19.2 µM.

For `CC(=O)O[C@H]1CC[C@@]2(C)[C@@H](CC[C@@H]3[C@@H]2CC[C@]2(C)C=C(C=O)C[C@@H]32)C1`, the GI50 in the assay on MCF7 breast was 2.58 µM; with HOP-62 NSCLC it was 10.5 µM; in the assay with MDA-MB-435, 5.01 µM; in the assay with HL-60(TB) leukemia, 2.2 µM; in the assay with IGROV1 ovarian, 3.73 µM; with LOX IMVI melanoma, 1.75 µM. Further, the TGI was 10.8 µM with MCF7 breast; 23.1 µM in the assay with HOP-62 NSCLC; 19.2 µM in the assay on MDA-MB-435; 5.87 µM in the assay with HL-60(TB) leukemia; 14.6 µM in the assay with IGROV1 ovarian; 3.54 µM in the assay with LOX IMVI melanoma.

On to `O=C(COc1cccc(/C=C2\COc3ccc(Cl)cc3C2=O)c1)c1ccc(Cl)cc1`, for which the GI50 with MCF7 breast was 1.25 µM; in the assay on HOP-62 NSCLC, 14.3 µM; in the assay on HOP-92 NSCLC, 0.536 µM; with MDA-MB-435, 5.91 µM; with HL-60(TB) leukemia it was 8.99 µM; in the assay on IGROV1 ovarian, 0.54 µM. For the same compound, the GI50 with LOX IMVI melanoma was 3.2 µM. Besides, the TGI was determined as 4.76 µM in the assay with MCF7 breast; 27.7 µM in the assay with HOP-62 NSCLC; 13.4 µM with HOP-92 NSCLC; 18.6 µM with MDA-MB-435; 31.5 µM with HL-60(TB) leukemia; 3.7 µM with IGROV1 ovarian. The compound further came in with a TGI with LOX IMVI melanoma of 13.2 µM.

With `COC(=O)C1=C(OC(=O)c2ccc(Cl)cc2)C(C(=O)OC)[C@@]2(O)[C@@H](C(=O)OC)C(c3ccccc3Cl)C[C@@H]1[C@@H]2C(=O)OC` (stereo partly drawn), the GI50 in the assay with RXF 393 renal was 2.23 µM; in the assay on MCF7 breast it was 5.47 µM; in the assay on HOP-62 NSCLC, 15.9 µM; with HOP-92 NSCLC, 47.2 µM; in the assay on MDA-MB-435 it was 2.06 µM. In addition, the TGI in the assay with RXF 393 renal was 6.96 µM; in the assay with MCF7 breast, more than 100 µM; in the assay with HOP-62 NSCLC it was more than 100 µM; with HOP-92 NSCLC, more than 100 µM; with MDA-MB-435, 4.93 µM.

As for `CC1(C)CC[C@]2(C(=O)N3CCOCC3)CC[C@]3(C)C(=CC[C@@H]4[C@@]5(C)C/C(=C/c6ccncc6)C(=O)C(C)(C)[C@@H]5CC[C@]43C)[C@@H]2C1`, the GI50 is 1.22 µM in the assay on RXF 393 renal; 0.509 µM in the assay on MCF7 breast; 1.76 µM in the assay on HOP-62 NSCLC; 0.0347 µM in the assay with HOP-92 NSCLC; 1.16 µM with HL-60(TB) leukemia; 3.09 µM with IGROV1 ovarian. In the assay on LOX IMVI melanoma, the GI50 is 1.24 µM. Besides, the TGI is 3.03 µM in the assay on RXF 393 renal; 15.3 µM with MCF7 breast; 6.73 µM in the assay on HOP-62 NSCLC; 11.6 µM with HOP-92 NSCLC; 3.96 µM with HL-60(TB) leukemia; more than 100 µM in the assay with IGROV1 ovarian. Besides, the TGI with LOX IMVI melanoma was 2.72 µM.

For the compound `Cn1cc(-c2ccc(-c3cn(C)c4ccc(Cl)cc34)s2)c2cc(Cl)ccc21`, the GI50 in the assay with RXF 393 renal was 70.3 µM; with MCF7 breast it was more than 100 µM; with HOP-62 NSCLC it was more than 100 µM; in the assay with MDA-MB-435, more than 100 µM; in the assay on HL-60(TB) leukemia, more than 100 µM; in the assay with IGROV1 ovarian it was more than 100 µM. The GI50 in the assay with LOX IMVI melanoma is more than 100 µM. Moreover, the TGI with RXF 393 renal, in the assay on MCF7 breast, in the assay with HOP-62 NSCLC, in the assay on MDA-MB-435, with HL-60(TB) leukemia and in the assay on IGROV1 ovarian was more than 100 µM in each case. The TGI with LOX IMVI melanoma was more than 100 µM.

Turning to `CCOc1ccccc1/C=N\N=C(\N)N/N=C/c1ccccc1OCC`, the GI50 with RXF 393 renal is 1.26 µM; in the assay with MCF7 breast, 1.01 µM; in the assay on HOP-62 NSCLC it was 5.73 µM; in the assay on HL-60(TB) leukemia, 1.33 µM; with IGROV1 ovarian it was 4.76 µM; in the assay on LOX IMVI melanoma, 4.68 µM. Further, the TGI is 3.82 µM with RXF 393 renal; more than 100 µM with MCF7 breast; more than 100 µM with HOP-62 NSCLC; 8.92 µM in the assay on HL-60(TB) leukemia; more than 100 µM with IGROV1 ovarian; more than 100 µM in the assay on LOX IMVI melanoma.
